Measured values as given in ChEMBL document CHEMBL4052706, “Isolation, structure elucidation, and synthesis of antiplasmodial quinolones from Crinum firmifolium” (Bioorg Med Chem, 2017).

Columns and labels:
A2780 = test: Antiproliferative activity against human A2780 cells after 2 days by Alamar blue assay; type: cell-based; conditions: A2780, 48 h
[1] = Selectivity ratio of IC50 for human A2780 cells to IC50 for chloroquine/mefloquine-resistant Plasmodium falciparum Dd2
Plasmodium falciparum [2] = test: Antiplasmodial activity against chloroquine/mefloquine-resistant Plasmodium falciparum Dd2 incubated for 72 hrs by SYBR green 1 dye based fluorescence assay; type: functional; conditions: Dd2, 72 h
Plasmodium falciparum [3] = test: Antiplasmodial activity against chloroquine-sensitive Plasmodium falciparum 3D7 incubated for 72 hrs by SYBR green 1 dye based fluorescence assay; type: functional; conditions: 3D7, 72 h

For `CCCCCCCCc1cc(=O)c2ccccc2[nH]1`, the IC50 (A2780) was 12 µM, the “Ratio IC50” value [1] was 3.4 and the IC50 (Plasmodium falciparum [2]) was 3.65 µM.

With `CC(C)CCCCCc1cc(=O)c2ccccc2[nH]1` the IC50 (A2780) was 34 µM, the “Ratio IC50” value [1] was 57.7 and the IC50 (Plasmodium falciparum [3]) was 0.501 µM. It also gave an IC50 (Plasmodium falciparum [2]) of 0.583 µM.

In the case of `CCC(C)CCCCc1cc(=O)c2ccccc2[nH]1` (centres undefined), the IC50 (A2780) is reported as 8.7 µM, the “Ratio IC50” value [1] is reported as 11.6 and the IC50 (Plasmodium falciparum [3]) is reported as 0.921 µM. For the same compound, the IC50 (Plasmodium falciparum [2]) was 0.75 µM.

In the case of `CC(=O)O[C@H]1C(=O)[C@@]2(C)[C@H]([C@H](OC(=O)c3ccccc3)[C@]3(O)C[C@H](OC(=O)[C@H](O)[C@@H](NC(=O)c4ccccc4)c4ccccc4)C(C)=C1C3(C)C)[C@]1(OC(C)=O)CO[C@@H]1C[C@@H]2O` [PACLITAXEL], the IC50 (A2780) is reported as 0.0137 µM.

In the case of `C[C@@H]1CC[C@H]2[C@@H](C)C(=O)O[C@@H]3O[C@@]4(C)CC[C@@H]1[C@]32OO4` [ARTEMISININ], the IC50 (Plasmodium falciparum [3]) is reported as 0.0059 µM and the IC50 (Plasmodium falciparum [2]) is reported as 0.009 µM.

Compound `CCCCCCCc1cc(=O)c2ccccc2[nH]1` has an IC50 (A2780) of 35 µM and an IC50 (Plasmodium falciparum [2]) of 1.31 µM.

With `CNc1ccccc1-c1cc2c(cc1CO)OCO2` the IC50 (A2780) was > 78 µM and the IC50 (Plasmodium falciparum [2]) was > 39 µM.

With `CCCC(C)CCCc1cc(=O)c2ccccc2[nH]1` (centres undefined) the IC50 (A2780) was 29 µM, the “Ratio IC50” value [1] was 89 and the IC50 (Plasmodium falciparum [3]) was 0.385 µM. It also gave an IC50 (Plasmodium falciparum [2]) of 0.33 µM.

With `COc1cc2c(cc1O)c(=O)n1ccc3cccc2c31` the IC50 (A2780) was > 75 µM and the IC50 (Plasmodium falciparum [2]) was > 38 µM.
